Laboratory results taken from ChEMBL document CHEMBL1201862, “PubChem BioAssay data set” (2004).
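A five-concentration, 48-hour dose response in 96-well plates underlies each endpoint, interpolated linearly between surrounding concentrations. GI50 marks 50% less growth.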 Activity calls are given as the source filed them. Cut-off read from the data, not from the text of the source: active = GI50 up to about 1.1 µM and inactive = higher.

What was measured:
Experiment in all cases: NCI-60 cell line screen, 48 h
HT-29 = system: HT-29
SK-MEL-5 = system: SK-MEL-5
MCF7 = system: MCF7
SN12C = system: SN12C
HCT-116 = system: HCT-116
SNB-75 = system: SNB-75
786-0 = system: 786-0
OVCAR-4 = system: OVCAR-4
OVCAR-8 = system: OVCAR-8
A498 = system: A498
MOLT-4 = system: MOLT-4
SK-OV-3 = system: SK-OV-3
COLO 205 = system: COLO 205
HOP-92 = system: HOP-92
CCRF-CEM = system: CCRF-CEM
RPMI-8226 = system: RPMI-8226
T47D = system: T47D
SNB-19 = system: SNB-19
EKVX = system: EKVX
MDA-N = system: MDA-N
SK-MEL-28 = system: SK-MEL-28
RXF 393 = system: RXF 393
LOX IMVI = system: LOX IMVI
MDA-MB-231 = system: MDA-MB-231
NCI/ADR-RES = system: NCI/ADR-RES
IGROV-1 = system: IGROV-1
SF-295 = system: SF-295
Malme-3M = system: Malme-3M
CAKI-1 = system: CAKI-1
NCI-H23 = system: NCI-H23
SK-MEL-2 = system: SK-MEL-2
OVCAR-5 = system: OVCAR-5
ACHN = system: ACHN
NCI-H460 = system: NCI-H460
HL-60 = system: HL-60
HCT-15 = system: HCT-15
M14 = system: M14
K562 = system: K562
Hs-578T = system: Hs-578T
PC-3 = system: PC-3
SW-620 = system: SW-620
UO-31 = system: UO-31
HCC 2998 = system: HCC 2998
SR = system: SR
NCI-H522 = system: NCI-H522
NCI-H226 = system: NCI-H226
KM12 = system: KM12
UACC-257 = system: UACC-257
A549 = system: A549
TK-10 = system: TK-10
SF-268 = system: SF-268
U-251 = system: U-251
DU-145 = system: DU-145
HOP-62 = system: HOP-62
SF-539 = system: SF-539
UACC-62 = system: UACC-62
MDA-MB-435 = system: MDA-MB-435

SMILES: CC(C)=Cc1cc2c(cc1O)CCC1C2CC[C@@]2(C)C1CC[C@@H]2O (stereo not given in full)
- GI50 (HT-29): 14.9 µM (inactive)
- GI50 (SK-MEL-5): 6.24 µM (inactive)
- GI50 (MCF7): 14.4 µM (inactive)
- GI50 (SN12C): 14.7 µM (inactive)
- GI50 (HCT-116): 10.3 µM (inactive)
- GI50 (SNB-75): 3.56 µM (inactive)
- GI50 (786-0): 12.4 µM (inactive)
- GI50 (OVCAR-4): 30.3 µM (inactive)
- GI50 (OVCAR-8): 17.9 µM (inactive)
- GI50 (A498): 16.4 µM (inactive)
- GI50 (MOLT-4): 6.41 µM (inactive)
- GI50 (SK-OV-3): 14.9 µM (inactive)
- GI50 (COLO 205): 18.4 µM (inactive)
- GI50 (HOP-92): 21.3 µM (inactive)
- GI50 (CCRF-CEM): 12.9 µM (inactive)
- GI50 (RPMI-8226): 5.14 µM (inactive)
- GI50 (T47D): 12.6 µM (inactive)
- GI50 (SNB-19): 11.6 µM (inactive)
- GI50 (EKVX): 15.6 µM (inactive)
- GI50 (MDA-N): 2.44 µM (inactive)
- GI50 (SK-MEL-28): 15.5 µM (inactive)
- GI50 (RXF 393): 6.01 µM (inactive)
- GI50 (LOX IMVI): 3.97 µM (inactive)
- GI50 (MDA-MB-231): 16.3 µM (inactive)
- GI50 (NCI/ADR-RES): 7.66 µM (inactive)
- GI50 (IGROV-1): 12.8 µM (inactive)
- GI50 (SF-295): 2.26 µM (inactive)
- GI50 (Malme-3M): 10.4 µM (inactive)
- GI50 (CAKI-1): 13.5 µM (inactive)
- GI50 (NCI-H23): 15.8 µM (inactive)
- GI50 (SK-MEL-2): 14.8 µM (inactive)
- GI50 (OVCAR-5): 15.7 µM (inactive)
- GI50 (ACHN): 14 µM (inactive)
- GI50 (NCI-H460): 12 µM (inactive)
- GI50 (HL-60): 15.2 µM (inactive)
- GI50 (HCT-15): 8.89 µM
- GI50 (M14): 10.4 µM (inactive)
- GI50 (K562): 3.75 µM (inactive)
- GI50 (Hs-578T): 18.5 µM (inactive)
- GI50 (PC-3): 11.7 µM (inactive)
- GI50 (SW-620): 8.53 µM (inactive)
- GI50 (UO-31): 13.3 µM (inactive)
- GI50 (HCC 2998): 14.1 µM (inactive)
- GI50 (SR): 3.18 µM (inactive)
- GI50 (NCI-H522): 5.35 µM (inactive)
- GI50 (NCI-H226): 8.81 µM (inactive)
- GI50 (KM12): 11.8 µM (inactive)
- GI50 (UACC-257): 14.9 µM (inactive)
- GI50 (A549): 12.5 µM (inactive)
- GI50 (TK-10): 3.16 µM (inactive)
- GI50 (SF-268): 16.7 µM (inactive)
- GI50 (U-251): 10.4 µM (inactive)
- GI50 (DU-145): 14.3 µM (inactive)

SMILES: CC(C)=CCC12Cc3ccc(O)cc3C(C(C)CN1)C2C (stereo not given)
- GI50 (HT-29): 44.6 µM (inactive)
- GI50 (SK-MEL-5): > 10 µM (inactive)
- GI50 (MCF7): 81.3 µM (inactive)
- GI50 (SN12C): > 100 µM (inactive)
- GI50 (HCT-116): 59.7 µM (inactive)
- GI50 (SNB-75): 99.5 µM (inactive)
- GI50 (786-0): > 100 µM (inactive)
- GI50 (OVCAR-4): > 100 µM (inactive)
- GI50 (OVCAR-8): > 100 µM (inactive)
- GI50 (A498): 50.9 µM (inactive)
- GI50 (MOLT-4): 52 µM (inactive)
- GI50 (SK-OV-3): > 100 µM (inactive)
- GI50 (COLO 205): 36.9 µM (inactive)
- GI50 (HOP-92): 44 µM (inactive)
- GI50 (CCRF-CEM): 46.8 µM (inactive)
- GI50 (RPMI-8226): 37.2 µM (inactive)
- GI50 (T47D): > 100 µM (inactive)
- GI50 (SNB-19): > 100 µM (inactive)
- GI50 (EKVX): > 100 µM (inactive)
- GI50 (SK-MEL-28): 49.9 µM (inactive)
- GI50 (RXF 393): > 100 µM (inactive)
- GI50 (LOX IMVI): 42.9 µM (inactive)
- GI50 (MDA-MB-231): > 100 µM (inactive)
- GI50 (NCI/ADR-RES): > 100 µM (inactive)
- GI50 (IGROV-1): > 100 µM (inactive)
- GI50 (SF-295): 65.2 µM (inactive)
- GI50 (HOP-62): > 100 µM (inactive)
- GI50 (Malme-3M): > 100 µM (inactive)
- GI50 (NCI-H23): > 100 µM (inactive)
- GI50 (SF-539): 72.1 µM (inactive)
- GI50 (OVCAR-5): 58.9 µM (inactive)
- GI50 (UACC-62): > 100 µM (inactive)
- GI50 (ACHN): > 100 µM (inactive)
- GI50 (NCI-H460): 52.5 µM (inactive)
- GI50 (HL-60): 28.1 µM (inactive)
- GI50 (HCT-15): 72.1 µM
- GI50 (M14): 21 µM (inactive)
- GI50 (K562): 34.4 µM (inactive)
- GI50 (Hs-578T): 67.6 µM (inactive)
- GI50 (MDA-MB-435): 44.9 µM (inactive)
- GI50 (SW-620): > 100 µM (inactive)
- GI50 (UO-31): 27 µM (inactive)
- GI50 (HCC 2998): 20.8 µM (inactive)
- GI50 (SR): 39.2 µM (inactive)
- GI50 (NCI-H226): > 100 µM (inactive)
- GI50 (KM12): > 100 µM (inactive)
- GI50 (UACC-257): 27.3 µM (inactive)
- GI50 (A549): > 100 µM (inactive)
- GI50 (TK-10): > 100 µM (inactive)
- GI50 (SF-268): > 100 µM (inactive)
- GI50 (U-251): 83.4 µM (inactive)
- GI50 (DU-145): > 100 µM (inactive)
